Source: patent US20240132511A1, “TREATMENTS OF PRADER-WILLI SYNDROME” (Neuren Pharmaceuticals Limited, priority 2021, published 2024)

melting point	SMILES
160 to 163 °C	C[C@@]12CCCN1C(=O)C1(CCCC1)NC2=O [Cyclic cyclopentyl-G-2-MeP, (8aS)-Methyl-spiro[cyclopentane-1,3(4H)-tetrahydropyrrolo[1,2-a]pyrazine]-1,4(2H)-dione]
174 to 177 °C	C[C@@]12CCCN1C(=O)C1(CCCCC1)NC2=O [Cyclic cyclohexyl-G-2-MeP, (8aS)-Methyl-spiro[cyclohexane-1,3(4H)-tetrahydropyrrolo[1,2-a]pyrazine]-1,4(2H)-dione]
